Experiment: gradient 5% acetonitrile 3 min, to 50% in 2 min, to 85% in 15 min, held 3 min, 100 µL/min
Conditions: column: Zorbax Extend-C18 2.1 x 50 mm; eluents: water / acetonitrile, 0.1% formic acid
Method in brief: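 Pure standards were analyzed in mixtures of ~100 molecules using HPLC coupled to a quadrupole time-of-flight mass spectrometer, in both positive and negative ionization mode. Separation used a Zorbax Extend-C18 column (2.1 × 50 mm, 1.8 μm) at 100 μL/min, with water and acetonitrile each containing 0.1% formic acid. Dead and dwell volumes were 40 μL and 900 μL, and data were collected over 3 months. Retention time was read from computationally picked adduct peaks, each inspected manually.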

## CC(C)C(NC(=O)Cc1ccccc1Cl)C(=O)Nc1nc2ccccc2[nH]1 (configuration not stated)
  RP-LC retention time: 731 s

## COc1ccc(OC)c(NC(=O)C(=O)NCC2CCCO2)c1 (configuration not stated)
  RP-LC retention time: 807 s

## Nc1nc(Nc2ccccc2F)nc2ccccc12
  RP-LC retention time: 600 s

## O=C(CN1C(=O)c2ccccc2C1=O)Nc1cccc(-c2cn3c(n2)SCC3)c1
  RP-LC retention time: 581 s

## CCc1nc(-c2cccc(C)c2)c(-c2ccnc(NC(=O)c3ccccc3)c2)s1
  RP-LC retention time: 1200 s

## CC(C)(C)NC(=O)N1CCC(CNC(=O)C2CCN(S(C)(=O)=O)CC2)CC1
  RP-LC retention time: 599 s

## Cc1ccc(NC(=O)N2CCCC(Cn3cnc4cccnc43)C2)cc1Cl (configuration not stated)
  RP-LC retention time: 747 s

## Cc1ccc(-c2noc(CN3C(=O)COc4ccc(C(C)(C)C)cc43)n2)cc1
  RP-LC retention time: 1310 s

## Cc1noc(CNC(=O)C2CCN(C(=O)c3snnc3C)CC2)n1
  RP-LC retention time: 563 s

## Cc1cc(F)ccc1NC(=O)CN1C(=O)CCCc2cc(S(=O)(=O)N3CCCC3)ccc21
  RP-LC retention time: 817 s

## CC(=O)c1cccc(NC(=O)Cn2nc3c4cc(-c5ccccc5)nn4ccn3c2=O)c1
  RP-LC retention time: 822 s

## Cc1nnc(NC(=O)CN(C)c2nc3c(Cl)cccc3s2)s1
  RP-LC retention time: 742 s

## O=C(Cn1c(=O)c2cccn2c2ccccc21)Nc1cccc(C(F)(F)F)c1
  RP-LC retention time: 880 s

## COc1cc2c3c(n(C)c(=O)c2cc1OC)-c1cc2c(cc1C3=O)OCO2
  RP-LC retention time: 840 s

## CC1CCCCN1CCCNC(=O)Cn1ccc2cc(S(=O)(=O)N3CCCCC3)ccc21 (configuration not stated)
  RP-LC retention time: 670 s

## Cc1ccc(-c2noc(Cc3nc(-c4ccc5c(c4)OCO5)cs3)n2)cc1
  RP-LC retention time: 1220 s

## O=C(Cn1cccc1-c1nnc(C2CCC2)o1)Nc1ccc(F)cc1
  RP-LC retention time: 897 s

## CCc1nc(-c2cc(S(=O)(=O)Nc3ccccc3Br)c(C)s2)cs1
  RP-LC retention time: 1130 s

## Cc1cccc(OCCn2c(CCO)nc3ccccc32)c1C
  RP-LC retention time: 599 s

## CCc1cc(-c2csc(S(=O)(=O)N3CCc4ccccc4C3)c2)on1
  RP-LC retention time: 1110 s

## CCCCN(CC)C(=O)c1cc2c(=O)oc3ccccc3c2n1C
  RP-LC retention time: 910 s

## O=c1c2ccccc2ncn1Cc1noc(Cc2ccc(Cl)cc2)n1
  RP-LC retention time: 872 s

## O=C(NCc1cccc(Cl)c1)C1CCN(c2cncnc2N2CCOCC2)CC1
  RP-LC retention time: 647 s

## COC(=O)c1ccc(C(=O)Nc2nnc(-c3ccc(Br)o3)o2)cc1
  RP-LC retention time: 745 s

## Cc1nn(CC(=O)NCCc2ccco2)c(=O)c2nn(-c3ccccc3)c(C)c12
  RP-LC retention time: 758 s

## COc1ccc(CN2CCC3(CC2)CC(O)CCO3)cc1 (configuration not stated)
  RP-LC retention time: 564 s

## COc1ccc(NC(=O)N2[C@H]3CC[C@@H]2c2cnc(C)nc2C3)cc1F
  RP-LC retention time: 671 s

## O=C(Nc1cccc(-c2ccc(N3CCCC3)nn2)c1)c1ccccc1F
  RP-LC retention time: 647 s

## CN(CC1(C)CCOCC1)C(=O)NC1CCCCC1
  RP-LC retention time: 749 s

## Cc1ccccc1-c1nc(-c2ccc3nnn(C)c3c2)no1
  RP-LC retention time: 1060 s

## COc1ccccc1-c1nnc(-c2cccc(S(=O)(=O)N3CCCC3)c2)o1
  RP-LC retention time: 885 s

## CN(CC1(C)CCOCC1)C(=O)NCc1ccco1
  RP-LC retention time: 649 s

## CCOC(=O)C1CCN(c2nc(-c3ccc(OC)cc3)nc3ccccc23)CC1
  RP-LC retention time: 790 s

## O=S(=O)(c1cc(-c2nnc(C3CC3)o2)co1)N1CCCC1
  RP-LC retention time: 774 s

## CCCNC(=O)C1CCN(S(=O)(=O)c2cc(C(=O)N3CCCC3)n(C)c2)CC1
  RP-LC retention time: 648 s

## CSc1cccc(NC(=O)CSc2nnc3c4cc(-c5ccc(C)c(C)c5)nn4ccn23)c1
  RP-LC retention time: 1030 s

## CCOc1ccc(-n2c(-c3ccc(Cl)cc3)cn3c4c(=O)n(C)c(=O)n(C)c4nc23)cc1
  RP-LC retention time: 1050 s

## CCn1c(=O)c2cc(C(=O)NCc3cc(C)ccc3C)nn2c2ccccc21
  RP-LC retention time: 930 s

## COc1ccc(CC(=O)N2CCC(c3cc(N)on3)CC2)cc1
  RP-LC retention time: 662 s

## O=C(Cn1ccc2ccc(N3CCOCC3)nc21)N1CCN(c2ccc(F)cc2)CC1
  RP-LC retention time: 898 s

## CCN1C(=O)c2cc(S(=O)(=O)NCc3ccccc3)ccc2Oc2cccnc21
  RP-LC retention time: 986 s

## CCc1ccccc1N1C(=O)CN(S(C)(=O)=O)CC1(C)C(=O)NCc1ccc(C)cc1 (configuration not stated)
  RP-LC retention time: 860 s

## Cc1cc(C)cc(NC2C=CS(=O)(=O)C2)c1 (configuration not stated)
  RP-LC retention time: 760 s

## CCc1cc(=O)n(CC(=O)NCCc2ccc(Cl)cc2)c(N2CCOCC2)n1
  RP-LC retention time: 803 s

## CCCCC(=O)Nc1ccc2nc(N3CCN(c4ccc(OC)cc4)CC3)cc(C(=O)O)c2c1
  RP-LC retention time: 673 s

## FC1(F)CN[C@H](c2nc(-c3ccccc3)no2)C1
  RP-LC retention time: 794 s

## Cc1nnc(N2CCCC(C(=O)NCc3ccc(OC(C)C)cc3)C2)c2nn(-c3ccccc3)c(C)c12 (configuration not stated)
  RP-LC retention time: 764 s

From the METLIN SMRT retention time set (Domingo-Almenara et al. 2019)
